{
  "source": "patent US20230086913A1",
  "about": "“USE OF SOPHOROLIPIDS AS FEED ADDITIVE” (DSM IP ASSETS B.V., priority 2017, published 2023)",
  "key": {"human PBLs": {"tested_on": "human PBLs", "experiment": "Effect of sophorolipids on inflammatory mediators in LPS-treated human PBLs", "assay_type": "cell-based", "settings": "1, 5 and 10 μm", "method": "PBLs were isolated from human blood. PBLs were treated with LPS to induce inflammatory response in the presence of different concentrations (1 μm, 5 μm, and 10 μm) of six sophorolipids: […]); BSL(6'OH,6''OH); and BSL(6'Ac,6''Ac)."}, "Microglial cells": {"tested_on": "Microglial cells", "experiment": "Effect of sophorolipid pre-treatment on inflammatory mediators in LPS-stimulated microglia", "assay_type": "cell-based, rats", "settings": "E22 rat primary microglia, 24 h pre-treatment, LPS stimulation", "method": "Microglial cells were obtained from primary microglial cultures from […] rats. On day 1, microglial cells were seeded in 96-well plates and allowed to adhere for 24 hours. On day 3, the microglial cells were pre-treated with sophorolipid for 24 hours (n=11). On day 4, the microglial cells were stimulated with lipopolysaccharide (LPS). On day 5, supernatants were collected and analysed for cytokines of interest."}},
  "note": "Like-named read-outs stand apart in the source and are kept apart here.",
  "data": [
    {"compound": "CCCCOC(=O)CCCCCCC/C=C\\CCCCCC[C@H](C)O[C@@H]1O[C@H](COC(C)=O)[C@@H](O)[C@H](O)[C@H]1O[C@@H]1O[C@H](COC(C)=O)[C@@H](O)[C@H](O)[C@H]1O", "note": "(relative stereo) [BSL(6′Ac,6″Ac), butyl-17-L-[(2′-0-β-D-glucopyranosyl-β-D-glucopyranosyl)-oxy]-cis-9-octadecenoate-6′-6″-diacetate]", "values": [
      {"measurement": "TNF-α secretion", "setting": "human PBLs", "result": "decreased"}
    ]},
    {"compound": "CCOC(=O)CCCCCCC/C=C\\CCCCCC[C@H](C)O[C@@H]1O[C@H](COC(C)=O)[C@@H](O)[C@H](O)[C@H]1O[C@@H]1O[C@H](COC(C)=O)[C@@H](O)[C@H](O)[C@H]1O", "note": "(relative stereo) [ESL(6′Ac,6″Ac), ethyl-17-L-[(2′-0-β-D-glucopyranosyl-β-D-glucopyranosyl)-oxy]-cis-9-octadecenoate-6′-6-diacetate]", "values": [
      {"measurement": "IL-1β secretion", "setting": "human PBLs", "result": "decreased"},
      {"measurement": "IL-6 secretion", "setting": "human PBLs", "result": "decreased"},
      {"measurement": "IL-8 secretion", "setting": "human PBLs", "result": "decreased"},
      {"measurement": "MIP-1β secretion", "setting": "human PBLs", "result": "decreased"},
      {"measurement": "TNF-α secretion", "setting": "human PBLs", "result": "decreased"}
    ]},
    {"compound": "CCOC(=O)CCCCCCC/C=C\\CCCCCC[C@H](C)O[C@@H]1O[C@H](CO)[C@@H](O)[C@H](O)[C@H]1O[C@@H]1O[C@H](COC(C)=O)[C@@H](O)[C@H](O)[C@H]1O", "note": "(relative stereo) [ESL(6′OH,6″Ac), ethyl-17-L-[(2′-0-β-D-glucopyranosyl-β-D-glucopyranosyl)-oxy]-cis-9-octadecenoate-6″-acetate]", "values": [
      {"measurement": "MIP-1β secretion", "setting": "human PBLs", "result": "decreased"},
      {"measurement": "TNF-α secretion", "setting": "human PBLs", "result": "decreased"}
    ]},
    {"compound": "Sophorolipid", "values": [
      {"measurement": "IC50", "setting": "Microglial cells; read-out: PGE2 secretion, 1050", "result": 29.8, "unit": "µM"},
      {"measurement": "IC50", "setting": "Microglial cells; read-out: TNF-alpha secretion, 1050", "result": 21.2, "unit": "µM"}
    ]}
  ]
}
